In patent publication US20100113372A1, “Method For Preparing Kaempferol-3-0-Rutinoside and Composition of Skin External Application Comprising Thereof” (Amorepacific Corporation, priority 2006, published 2010):

Key:
collagenase = test: Inhibitory effect of collagenase expression (collagenase immunoassay of fibroblast culture media); type: cell-based; settings: human fibroblasts; for Degree of collagenase expression (%): serum-free DMEM, 1×10^4M for 24 hours, untreated group = 100
Method: The effect of inhibiting collagenase expression achieved by kaempferol-3-O-rutinoside obtained from Examples 3 and 4 is measured and compared with that achieved by tocopherol and EGCG. Tocopherol and EGCG are anti-oxidation materials that regenerate an epidermal cell of skin and prevent skin aging.
(§1) Human fibroblasts were inserted in a 96-well microtiter plate containing the DMEM (Dulbecco's Modified Eagle's Media) media with 2.5% fetal bovine serum to a quantity of 5000 cells/well and cultured until the human fibroblasts grow by 90%, then cultured again in the serum-free DMEM media for 24 hours. The kaempferol-3-O-rutinoside of Examples 3 and 4, tocopherol and EGCG dissolved in the serum-free DMEM media were treated at a concentration of 1×10^4M for 24 hours, and the cell culture media was harvested.
The degree of collagenase generation of harvested cell culture media was measured using an instrument for measuring collagenase (Amershampharmacia Company). The harvested cell culture media was added in a 96-well plate coated uniformly with first collagenase antibody, and antigen-antibody reaction was conducted for 3 hours in a thermostat.
After 3 hours, second collagen antibody bonded with chromophore was added in the 96-well plate to react for 15 minutes. After 15 minutes, color developing material was inserted at room temperature for 15 minutes to induce color development, then 1M sulfuric acid was added to terminate the reaction (color development). The color of the reaction solution is yellow and the degree of yellow color can differ according to a degree of reaction progression.
Absorbance of the 96-well plate having the yellow color was measured through an absorbency measurement at 405 nm and a degree of synthesis was calculated by the following equation 1. In the calculation, an absorbance of cell culture media untreated with the material was used as a control group. That is, a degree of collagenase expression of an untreated group is 100, and a degree of collagenase expression of a group treated with the material as compared to that of the control group is obtained.

procollagen = test: Promoting effect of procollagen generation (procollagen type-1 C-peptide EIA kit); type: cell-based; settings: human fibroblasts; for Degree of procollagen generation (%): serum-free DMEM, 1×10^−4M for 24 hours, untreated group = 100
Method: The promoting effect of procollagen generation achieved by kaempferol-3-O-rutinoside obtained from Examples 3 and 4 is measured and compared with that achieved by vitamin C. The procollagen is a material inducing collagen generation and is required to generate collagen and prevent aging. Vitamin C is known as an essential component for synthesis of collagen.
as §1, with “4,” for “4, tocopherol”, “vitamin C” for “EGCG”, “1×10^−4M” for “1×10^4M”, “harvested. After 24 hours, the amount of procollagen floating in the culture media was measured using procollagen type-1 C-peptide EIA kit (MK101, Takara, Japan).” for “harvested.”
In an untreated group, a degree of procollagen generation is 100. A degree of procollagen generation of a group treated with the material as compared to that of the control group is obtained.

| Compound | Effect on collagenase expression (in words) (collagenase; in vitro) | Effect on procollagen generation (in words) (procollagen; in vitro) | Degree of collagenase expression (%) (collagenase) | Degree of procollagen generation (%) (procollagen) |
| --- | --- | --- | --- | --- |
| CC1OC(OCC2OC(Oc3c(-c4ccc(O)cc4)oc4cc(O)cc(O)c4c3=O)C(O)C(O)C2O)C(O)C(O)C1O (centres unmarked) [kaempferol-3-O-rutinoside] | inhibits the collagenase expression in vitro | promotes the procollagen generation in vitro | – | – |
| CC1OC(OCC2OC(Oc3c(-c4ccc(O)cc4)oc4cc(O)cc(O)c4c3=O)C(O)C(O)C2O)C(O)C(O)C1O (centres unmarked) [Example 4-2, Kaempferol-3-O-rutinoside] | – | – | 73% | 123% |
| CC1OC(OCC2OC(Oc3c(-c4ccc(O)cc4)oc4cc(O)cc(O)c4c3=O)C(O)C(O)C2O)C(O)C(O)C1O (centres unmarked) [Example 4-1, Kaempferol-3-O-rutinoside] | – | – | 68% | 145% |
| CC1OC(OCC2OC(Oc3c(-c4ccc(O)cc4)oc4cc(O)cc(O)c4c3=O)C(O)C(O)C2O)C(O)C(O)C1O (centres unmarked) [Example 3-2, Kaempferol-3-O-rutinoside] | – | – | 71% | 118% |
| O=C1O[C@H]([C@@H](O)CO)C(O)=C1O [Vitamin C, reference compound] | – | – | – | 120% |
| CC1OC(OCC2OC(Oc3c(-c4ccc(O)cc4)oc4cc(O)cc(O)c4c3=O)C(O)C(O)C2O)C(O)C(O)C1O (centres unmarked) [Example 3-1, Kaempferol-3-O-rutinoside] | – | – | 70% | 121% |
| O=C(O[C@@H]1Cc2c(O)cc(O)cc2O[C@@H]1c1cc(O)c(O)c(O)c1)c1cc(O)c(O)c(O)c1 [EGCG, reference compound] | – | – | 60% | – |
| CC1OC(OCC2OC(Oc3c(-c4ccc(O)cc4)oc4cc(O)cc(O)c4c3=O)C(O)C(O)C2O)C(O)C(O)C1O (centres unmarked) [Example 3-3, Kaempferol-3-O-rutinoside] | – | – | 63% | 138% |
| Tocopherol [reference compound] | – | – | 75% | – |
| CC1OC(OCC2OC(Oc3c(-c4ccc(O)cc4)oc4cc(O)cc(O)c4c3=O)C(O)C(O)C2O)C(O)C(O)C1O (centres unmarked) [Example 4-3, Kaempferol-3-O-rutinoside] | – | – | 70% | 122% |
